Measured values published in patent US5061794A, “Cephalosporin derivatives, and antibacterial agents” (priority 1986, dated 1991).
Values after ≈ are worked out from the molar mass of the structure shown. Read-outs that look alike come from different tables or passages of the source.

Key:
A. calcoaceticus No. 4 = experiment: in vitro antibacterial activity, agar plate dilution method (MIC); assay type: cell-based, Acinetobacter calcoaceticus; details: Acinetobacter calcoaceticus, NO.4, 16 h, 10^6 CFU/ml
How it was run: (§1)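 Agar plate dilution on Mueller Hinton agar containing graded compound levels, inoculated at 10^6 CFU/ml from overnight Mueller Hinton broth cultures. MIC (μg/ml) read after 16 h at 37°C.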

E. coli NIHJ JC2 = experiment: as above; assay type: cell-based; details: Escherichia coli, NIHJJC2, 16 h, read-out: Minimum Inhibitory Concentration (MIC), E. coli NIHJ JC2, 10^6 CFU/ml, 37° C.
How it was run: as §1

P. vulgaris HX-19 = experiment: as above; assay type: cell-based; details: Proteus vulgaris, HX19, 16 h, read-out: Minimum Inhibitory Concentration (MIC)
How it was run: as §1

K. pneumoniae PCI-602 = experiment: as above; assay type: cell-based; details: Klebsiella pneumoniae, PCI602, 16 h, read-out: Minimum Inhibitory Concentration (MIC), K. pneumoniae PCI-602; 10^6 CFU/ml
How it was run: as §1

E. cloacae Nek 39 = experiment: as above; assay type: cell-based; details: Enterobacter cloacae, NEK39, 16 h, read-out: Minimum Inhibitory Concentration (MIC), *E. cloacae Nek 39, lactamase-producing strain; 10^6 CFU/ml
How it was run: as §1

S. marcescens No. 16-2 = experiment: as above; assay type: cell-based; details: Serratia marcescens, NO.162, 16 h
How it was run: as §1

E. cloacae 963 = experiment: as above; assay type: cell-based; details: 10^6 CFU/ml
How it was run: as §1

S. aureus 209P NIHJ-JC1 = experiment: as above; assay type: cell-based; details: Staphylococcus aureus, 16 h
How it was run: as §1

S. marcescens IAM 1184 = experiment: as above; assay type: cell-based; details: Serratia marcescens, IAM1184, 16 h, read-out: Minimum Inhibitory Concentration (MIC)
How it was run: as §1

P. vulgaris No. 33 = experiment: as above; assay type: cell-based; details: Proteus vulgaris, NO.33, 16 h, read-out: Minimum Inhibitory Concentration (MIC), *P. vulgaris No. 33, lactamase-producing strain; 10^6 CFU/ml
How it was run: as §1

M. morganii GN5407 = experiment: as above; assay type: cell-based; details: Morganella morganii, GN5407, 16 h, read-out: Minimum Inhibitory Concentration (MIC), *M. morganii GN5407, lactamase-producing strain; 10^6 CFU/ml
How it was run: as §1

E. coli GN5482 = experiment: as above; assay type: cell-based; details: Escherichia coli, GN5482, 16 h
How it was run: as §1

K. oxytoca GN10650 = experiment: as above; assay type: cell-based; details: Klebsiella oxytoca, GN10650, 16 h, read-out: Minimum Inhibitory Concentration (MIC), *K. oxytoca GN10650, lactamase-producing strain; 10^6 CFU/ml
How it was run: as §1

K. pneumoniae No. 42 = experiment: as above; assay type: cell-based; details: Klebsiella pneumoniae, NO.42, 16 h, read-out: Minimum Inhibitory Concentration (MIC), *K. pneumoniae No. 42, lactamase-producing strain; 10^6 CFU/ml
How it was run: as §1

Ps. cepacia 23 = experiment: as above; assay type: cell-based, Pseudomonas cepacia; details: read-out: Minimum Inhibitory Concentration (MIC)
How it was run: as §1

Ps. aeruginosa IF03445 = experiment: as above; assay type: cell-based, Pseudomonas aeruginosa; details: Pseudomonas aeruginosa, IF03445, 16 h, read-out: Minimum Inhibitory Concentration (MIC), Ps. aeruginosa IF03445; 10^6 CFU/ml
How it was run: as §1

Ps. aeruginosa AK 109 = experiment: as above; assay type: cell-based, Pseudomonas aeruginosa; details: Pseudomonas aeruginosa, AK109, 16 h
How it was run: as §1

Ps. aeruginosa AKR17 = experiment: as above; assay type: cell-based, Pseudomonas aeruginosa; details: Pseudomonas aeruginosa, read-out: Minimum Inhibitory Concentration (MIC)
How it was run: as §1

E. coli CSH(RE45) = experiment: microbe, parasite or virus in culture; assay type: cell-based; details: Escherichia coli, 16 h, read-out: Minimum Inhibitory Concentration (MIC), *E. coli CSH(RE45), lactamase-producing strain; 10^6 CFU/ml
How it was run: as §1

E. coli CSH2 (RK1) = experiment: microbe, parasite or virus in culture; assay type: cell-based; details: Escherichia coli, 16 h, read-out: Minimum Inhibitory Concentration (MIC), *E. coli CSH2 (RK1), lactamase-producing strain; 10^6 CFU/ml
How it was run: as §1

[1] = read-out: Minimum Inhibitory Concentration (MIC), A. calcoaceticus No. 4
[2] = read-out: Minimum Inhibitory Concentration (MIC)
[3] = Enterobacter cloacae, 16 h, E. cloacae 963, read-out: Minimum Inhibitory Concentration (MIC)
[4] = S. marcescens IAM 1184, 10^6 CFU/ml
[5] = Burkholderia cepacia, 16 h, Ps. cepacia 23, 10^6 CFU/ml
[6] = 16 h, Ps. aeruginosa AKR17, 10^6 CFU/ml
[7] = A. calcoaceticus No. 4, read-out: Minimum Inhibitory Concentration (MIC)
[8] = read-out: Minimum Inhibitory Concentration (MIC), *S. marcescens No. 16-2, lactamase-producing strain, 10^6 CFU/ml
[9] = read-out: Minimum Inhibitory Concentration (MIC), S. aureus 209P NIHJ-JC1, 10^6 CFU/ml, 37° C., 16 hours
[10] = read-out: Minimum Inhibitory Concentration (MIC), Ps. aeruginosa AK 109, 10^6 CFU/ml
[11] = Enterobacter cloacae, 963, 16 h, read-out: Minimum Inhibitory Concentration (MIC), E. cloacae 963
[12] = read-out: Minimum Inhibitory Concentration (MIC), *E. coli GN5482, lactamase-producing strain, 10^6 CFU/ml

Structure (SMILES) | MIC (E. coli NIHJ JC2) | MIC (K. pneumoniae PCI-602) | MIC (E. cloacae Nek 39) | MIC (S. aureus 209P NIHJ-JC1; [2]) | MIC (S. marcescens IAM 1184; [4]) | MIC (P. vulgaris No. 33) | MIC (M. morganii GN5407) | MIC (K. oxytoca GN10650) | MIC (K. pneumoniae No. 42) | MIC (Ps. cepacia 23; [5]) | MIC (Ps. aeruginosa IF03445) | MIC (Ps. aeruginosa AK 109; [2]) | MIC (Ps. aeruginosa AKR17; [6]) | MIC (E. coli CSH(RE45)) | MIC (E. coli CSH2 (RK1)) | MIC (A. calcoaceticus No. 4; [7]) | MIC (P. vulgaris HX-19; P. vulgaris HX-19, 10^6 CFU/ml) | MIC (S. marcescens No. 16-2; [8]) | MIC (E. cloacae 963; [11]) | MIC (E. coli GN5482; [12]) | other results
CON=C(C(=O)NC1C(=O)N2C(C(=O)O)=C(CSc3nc(C(=O)O)c(-c4ccc(O)c(O)c4)s3)CSC12)c1csc(N)n1 (stereo not shown) [Ex. 52] | 0.39 µg/mL (≈ 0.587 µM) | < 0.006 µg/mL | 0.78 µg/mL (≈ 1.17 µM) | 12.5 µg/mL (≈ 18.8 µM) | 0.1 µg/mL (≈ 0.15 µM) | 0.1 µg/mL (≈ 0.15 µM) | 0.1 µg/mL (≈ 0.15 µM) | 6.25 µg/mL (≈ 9.4 µM) | 0.1 µg/mL (≈ 0.15 µM) | 0.025 µg/mL (≈ 0.0376 µM) | 6.25 µg/mL (≈ 9.4 µM) | 12.5 µg/mL (≈ 18.8 µM) | > 100 µg/mL | 0.05 µg/mL (≈ 0.0752 µM) | 0.0125 µg/mL (≈ 0.0188 µM) | – | – | – | – | – | MIC (A. calcoaceticus No. 4; [1]): 0.39 µg/mL (≈ 0.587 µM); MIC (P. vulgaris HX-19): 0.0125 µg/mL (≈ 0.0188 µM); MIC (S. marcescens No. 16-2; [2]): 12.5 µg/mL (≈ 18.8 µM); MIC (E. cloacae 963; [3]): 0.1 µg/mL (≈ 0.15 µM); MIC (E. coli GN5482; [2]): 3.12 µg/mL (≈ 4.69 µM)
C#CCON=C(C(=O)NC1C(=O)N2C(C(=O)O)=C(CSc3nc(C(=O)O)c(-c4ccc(O)c(O)c4)s3)CSC12)c1csc(N)n1 (stereo not shown) [Ex. 56, disodium 78-[2-(2-aminothiazol-4-yl)-2-proparqyloxyiminoacetamido]-3-[4-carboxylate-5-(3,4-dihydroxyphenyl)thiazol-2-yl]thiomethyl-3-cephem-4-carboxylate] | 0.78 µg/mL | < 0.006 µg/mL | 0.78 µg/mL | – | 0.05 µg/mL | 0.05 µg/mL | 0.05 µg/mL | 12.5 µg/mL | 0.1 µg/mL | < 0.006 µg/mL | 3.12 µg/mL | – | 100 µg/mL | 0.025 µg/mL | 0.0125 µg/mL | 0.2 µg/mL | < 0.006 µg/mL | 6.25 µg/mL | – | – | MIC (E. cloacae 963; [3]): 0.2 µg/mL; MIC (S. aureus 209P NIHJ-JC1; [9]): 6.25 µg/mL; MIC (E. coli GN5482; [2]): 3.12 µg/mL; MIC (Ps. aeruginosa AK 109; [10]): 6.25 µg/mL
CON=C(C(=O)NC1C(=O)N2C(C(=O)O)=C(CSc3ncc(-c4ccc(O)c(O)c4)o3)CSC12)c1csc(N)n1 (stereo not shown) [Ex. 62, sodium 75-[2-(2-aminothiazol-4-yl)-2-methoxyiminoacetamido]-3-[5-(3,4-dihydroxyphenyl)-oxazol-2-yl]thiomethyl-3-cephem-4-carboxylate] | 0.2 µg/mL | < 0.006 µg/mL | 0.78 µg/mL | – | 0.025 µg/mL | 0.025 µg/mL | 0.1 µg/mL | 3.12 µg/mL | 0.025 µg/mL | < 0.006 µg/mL | 1.56 µg/mL | 3.12 µg/mL | > 100 µg/mL | 0.05 µg/mL | 0.025 µg/mL | 0.2 µg/mL | < 0.006 µg/mL | 6.25 µg/mL | 0.05 µg/mL | 1.56 µg/mL | MIC (S. aureus 209P NIHJ-JC1; [9]): 1.56 µg/mL
CCON=C(C(=O)N[C@@H]1C(=O)N2C(C(=O)[O-])=C(CSc3ncc(-c4ccc(O)c(O)c4)o3)CS[C@H]12)c1csc(N)n1.[Na+] [Ex. 63, sodium 7β-[2-(2-aminothiazol-4-yl)-2-ethoxyiminoacetamido]-3-[5-(3,4-dihydroxyphenyl)-oxazol-2-yl]thiomethyl-3-cephem-4-carboxylate] | 0.39 µg/mL | < 0.006 µg/mL | 0.39 µg/mL | 3.12 µg/mL | – | 0.025 µg/mL | 0.1 µg/mL | 3.12 µg/mL | 0.1 µg/mL | – | 1.56 µg/mL | – | – | 0.1 µg/mL | 0.0125 µg/mL | – | – | 6.25 µg/mL | 0.2 µg/mL | 1.56 µg/mL | MIC (A. calcoaceticus No. 4; [1]): 0.78 µg/mL; MIC (P. vulgaris HX-19): 0.0125 µg/mL; MIC (S. marcescens IAM 1184): 0.1 µg/mL; MIC (Ps. cepacia 23; Burkholderia cepacia, 23, 16 h): 0.1 µg/mL; MIC (Ps. aeruginosa AK 109; [10]): 1.56 µg/mL; MIC (Ps. aeruginosa AKR17; AKR17, 16 h): 100 µg/mL
Nc1nc(/C(=N/OC(C(=O)O)c2ccc(O)c(O)c2)C(=O)N[C@@H]2C(=O)N3C(C(=O)O)=C(CSc4ncc(-c5ccc(O)c(O)c5)o4)CS[C@H]23)cs1 (stereo partly drawn) [Ex. 65, disodium 7β-(2-(2-aminothiazol-4-yl)-2-[(α-carboxylate-3,4-dihydroxybenzyl)oxyiminol]-acetamido}-3-[5-(3,4-dihydroxyphenyl)oxazol-2-yl]-thiomethyl-3-cephem-4-carboxylate] | 1.56 µg/mL | < 0.006 µg/mL | 0.78 µg/mL | 3.12 µg/mL | 0.2 µg/mL | 0.1 µg/mL | 0.2 µg/mL | 0.2 µg/mL | 0.2 µg/mL | < 0.006 µg/mL | 1.56 µg/mL | 0.39 µg/mL | 0.2 µg/mL | 0.05 µg/mL | 0.05 µg/mL | 0.05 µg/mL | 0.1 µg/mL | – | 0.78 µg/mL | 6.25 µg/mL | MIC (S. marcescens No. 16-2; [2]): 12.5 µg/mL
